Tests used:
[1] = meat model system, TBARS of cooked comminuted pork
Experimental: The efficacy of the bearberry extract was tested in a meat model system. Pork cushions were obtained from Mitchell's Gourmet Foods, Ltd. (Saskatoon, SK). The meat was ground two times through a ⅛-inch plate using a Biro grinder/food mixer (AMFG Model 24, Marblehead, Ohio). Pork from the meat block was transferred to Mason jars and mixed with 20% (w/w) distilled water and various additives. Meat systems were thermal processed in an 85° C. thermostated water bath with occasional stirring by a glass rod until an internal temperature of 75±1° C. was reached. The meat systems were cooled to room temperature, homogenized in an Osterizer (Sunbeam Corporation [Canada] Ltd., Toronto, ON) blender for 30 seconds, transferred to Whirl Pak bags (Systems Plus, New Hamburg, ON) and refrigerated at 4° C. until used.
(§1) Thiobarbituric reactive substances (TBARS) were determined for the bearberry extract (Witte et al.,1970, and Bedinghaus and Ockerman, 1995). Briefly, a 5-g portion of each sample was transferred to a stomacher bag in which 50 mL of a 20% (w/v) TCA and 1.6% (v/v) phosphoric acid solution were added. Each sample was stomached (Stomacher Lab-Blender 400, Model BA6021, A. J. Seward, Co., Bury St. Edmunds, UK) for 2 minutes and then 50 mL of cold distilled water were added. After blending for an additional minute, each sample was filtered through Whatman #1 filter paper into a 100-mL volumetric flask. Each flask was filled to mark with distilled water/TCA solution (1:1 v/v) and its contents were mixed well. Five-mL aliquots from each sample were pipetted to polypropylene conical centrifuge tubes (VWR Canlab, Mississauga, ON) to which an equivalent volume of a 0.02 M aqueous TBA reagent was added. Tubes were capped and heated in a boiling water bath for 35 minutes, and then cooled in an ice bath. Absorbance measurements of the pink-colored chromogen were made at 532 nm against a reagent blank using a spectrophotometer. A ‘k’ factor of 20.1 was determined from a calibration curve based on addition of known quantities of the malonaldehyde precursor, 1,1,3,3-tetramethoxypropane, to cooked meat samples prior to extraction and an average recovery of 85.5% was found.

[2] = TBA analysis of cooked pork patties; settings: 50 ppm TBHQ; 200 ppm bearberry extract; both formulations, stored at 4° C.
Experimental: as §1, with “Tubes were capped and heated in a boiling water bath for 35 minutes, and then cooled in an ice bath.” left out, “found. […]” for “found.”
TBA reactive substances were determined in cooked pork patties over the course of the study as has been previously described.

[3] = β-carotene-linoleate model system; settings: 0.5 mg of BHA per 5 mL emulsion, 50° C., FIG. 1
Experimental: The antioxidant activity of the bearberry extract was evaluated using a β-carotene-linoleate model system (Miller, 1971). Briefly, 2-mg quantities of β-carotene were dissolved in 10 mL of chloroform. One millilitre of this solution was then pipetted into a small round-bottom flask. After removing the chloroform using a rotary evaporator, 20 mg of purified linoleic acid, 200 mg of Tween 40 emulsifier and 50 mL of aerated, distilled water were added to the flask with vigorous stirring. Aliquots (5 mL) of prepared emulsion were transferred to a series of tubes containing 2 mg of extract or 0.5 mg of BHA. As soon as the emulsion was added to each tube, the zero time absorbance was read at 470 nm (nanometers) against a reagent blank using a spectrophotometer. Subsequent absorbance readings were recorded at 15-minute intervals by keeping the samples in water bath at 50° C. until the color of β-carotene disappeared.

Which results are given for `CC(C)(C)c1cc(O)ccc1O` [TBHQ, tert-butylhydroquinone]?
TBARS Values ([1]; Table 3, 50 ppm, 1 day of storage at 4° C.): 0.10 mg malonaldehyde eq./kg sample; TBARS Values ([1]; Table 3, 50 ppm, 3 days of storage at 4° C.): 0.10 mg malonaldehyde eq./kg sample; TBARS Values ([1]; Table 3, 50 ppm, 5 days of storage at 4° C.): 0.10 mg malonaldehyde eq./kg sample; TBARS Values ([1]; Table 3, 50 ppm, 7 days of storage at 4° C.): 0.20 mg malonaldehyde eq./kg sample; TBARS Values ([1]; Table 3, 50 ppm, 14 days of storage at 4° C.): 0.34 mg malonaldehyde eq./kg sample; TBARS Values ([1]; Table 4, 50 ppm, 1 day of storage at 4° C.): 0.10 mg malonaldehyde eq./kg sample; TBARS Values ([1]; Table 4, 50 ppm, 3 days of storage at 4° C.): 0.10 mg malonaldehyde eq./kg sample; TBARS Values ([1]; Table 4, 50 ppm, 5 days of storage at 4° C.): 0.10 mg malonaldehyde eq./kg sample; TBARS Values ([1]; Table 4, 50 ppm, 7 days of storage at 4° C.): 0.23 mg malonaldehyde eq./kg sample; TBARS Values ([1]; Table 4, 50 ppm, 14 days of storage at 4° C.): 0.45 mg malonaldehyde eq./kg sample; TBA results, lipid oxidation during storage [2]: retarded lipid oxidation during storage

Which “inhibition of β-carotene consumption throughout the incubation” value [3] does the source give for `COc1ccc(O)c(C(C)(C)C)c1` [BHA, butylated hydroxyanisole] here?
Its value is “completely inhibited β-carotene consumption”.
